Paper PMC8341922, “Glycosylated cyclophellitol-derived activity-based probes and inhibitors for cellulases” (RSC Chemical Biology, 2020)

How the values were obtained:
[1] = target: T1, HiCel7B (Mycothermus thermophilus, UniProt P56680); assay: continuous fluorescence inhibition kinetics with 4MU-GG, kapp vs [inhibitor]; also intact MS and crystal structure; type: biochemical; conditions: covalent; 50 mM sodium phosphate pH 7, 25 °C; 50 μM 4MU-GG; corrected for substrate KM; nucleophile E197; read-out: HiCel7B / K I
T1 construct: gene CEL7B; purified enzyme, gift from Novozymes; deglycosylated for crystals
T1 sequence (P56680 1-402): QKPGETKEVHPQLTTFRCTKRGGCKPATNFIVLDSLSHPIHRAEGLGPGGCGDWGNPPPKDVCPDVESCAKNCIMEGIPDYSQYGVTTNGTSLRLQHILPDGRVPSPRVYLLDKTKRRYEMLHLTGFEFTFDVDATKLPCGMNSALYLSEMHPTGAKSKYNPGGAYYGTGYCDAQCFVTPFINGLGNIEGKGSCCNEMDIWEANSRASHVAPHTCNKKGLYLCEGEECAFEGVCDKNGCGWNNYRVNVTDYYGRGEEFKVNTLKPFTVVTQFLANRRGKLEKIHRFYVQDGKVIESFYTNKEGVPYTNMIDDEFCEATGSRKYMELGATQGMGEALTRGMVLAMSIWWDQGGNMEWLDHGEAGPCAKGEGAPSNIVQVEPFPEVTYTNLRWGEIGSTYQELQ
Excerpt: continuous fluorescence inhibition kinetics with 4MU-GG, kapp vs [inhibitor]; also intact MS and crystal structure on HiCel7B

[2] = target: T1, HiCel7B; assay: continuous fluorescence inhibition kinetics with 4MU-GG, kapp vs [inhibitor]; type: biochemical; conditions: covalent, 50 mM sodium phosphate pH 7, 25 °C, 50 μM 4MU-GG, corrected for substrate KM, read-out: HiCel7B / K I
Excerpt: continuous fluorescence inhibition kinetics with 4MU-GG, kapp vs [inhibitor] on HiCel7B

[3] = target: T2, CbhB (Aspergillus niger, UniProt Q9UVS8); assay: biotin-avidin pulldown, label-free LC-MS/MS quantification; type: binding; conditions: covalent; labelled compound; native secretome, 37 °C, 2 h
T2 construct: native, in xylan-grown A. niger secretome; about 80 kDa band
T2 sequence (Q9UVS8 22-536): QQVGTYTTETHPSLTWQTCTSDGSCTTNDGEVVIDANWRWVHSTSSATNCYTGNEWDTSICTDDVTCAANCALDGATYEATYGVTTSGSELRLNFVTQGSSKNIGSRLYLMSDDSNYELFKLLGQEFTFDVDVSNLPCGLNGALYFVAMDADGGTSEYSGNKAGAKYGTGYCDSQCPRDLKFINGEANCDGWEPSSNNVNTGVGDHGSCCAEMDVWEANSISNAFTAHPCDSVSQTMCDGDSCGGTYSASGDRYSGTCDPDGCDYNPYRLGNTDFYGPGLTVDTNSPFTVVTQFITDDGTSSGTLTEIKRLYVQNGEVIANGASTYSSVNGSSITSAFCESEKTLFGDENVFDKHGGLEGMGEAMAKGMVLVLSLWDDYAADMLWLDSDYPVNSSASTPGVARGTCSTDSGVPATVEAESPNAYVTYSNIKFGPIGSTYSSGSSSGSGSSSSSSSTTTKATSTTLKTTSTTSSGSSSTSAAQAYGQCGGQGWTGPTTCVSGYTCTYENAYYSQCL

[4] = target: T3, XynC (Aspergillus niger, UniProt A2QFV7); assay: as above; type: binding; conditions: covalent; labelled compound; native secretome, 37 °C, 2 h
T3 construct: gene xlnC; native, in xylan-grown A. niger secretome; about 35 kDa band

[5] = target: T4, CbhA (Aspergillus niger, UniProt Q9UVS9); assay: as above; type: binding; conditions: covalent; labelled compound; native secretome, 37 °C, 2 h
T4 construct: native, in xylan-grown A. niger secretome; about 60 kDa band
T4 sequence (Q9UVS9 18-452): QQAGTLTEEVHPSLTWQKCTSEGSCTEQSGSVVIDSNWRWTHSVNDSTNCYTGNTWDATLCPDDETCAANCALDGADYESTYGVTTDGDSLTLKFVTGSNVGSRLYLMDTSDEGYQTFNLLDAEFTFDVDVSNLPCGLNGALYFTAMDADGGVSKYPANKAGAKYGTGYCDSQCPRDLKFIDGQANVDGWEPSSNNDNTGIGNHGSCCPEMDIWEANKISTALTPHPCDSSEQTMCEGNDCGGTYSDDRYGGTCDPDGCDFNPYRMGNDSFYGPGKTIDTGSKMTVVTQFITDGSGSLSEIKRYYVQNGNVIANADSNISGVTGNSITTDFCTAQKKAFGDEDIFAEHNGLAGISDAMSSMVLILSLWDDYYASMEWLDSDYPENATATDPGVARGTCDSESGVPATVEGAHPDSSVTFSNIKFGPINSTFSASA

[6] = substrate: Cc1cc(=O)oc2cc(O[C@@H]3O[C@H](CO)[C@@H](O[C@@H]4O[C@H](CO)[C@@H](O)[C@H](O)[C@H]4O)[C@H](O)[C@H]3O)ccc12; assay: fluorescence, 4-methylumbelliferone release; type: biochemical, Mycothermus thermophilus; conditions: 50 mM sodium phosphate pH 7, 25 °C, corrected for inner filter effect
Excerpt: fluorescence, 4-methylumbelliferone release on HiCel7B | The KM value for the interaction of HiCel7B with 4MU-GG under the assay conditions

## OC[C@@H]1C(O[C@@H]2O[C@H](CO)[C@@H](O)[C@H](O)[C@H]2O)C(O)C(O)[C@@H]2O[C@H]12 (stereo partly shown) [compound 1, Cellobiose configured cyclophellitol]
[1]
  KI (inactivation): 31 ± 4 µM

## OC[C@@H]1C(O[C@@H]2O[C@H](CO)[C@@H](O[C@@H]3O[C@H](CO)[C@@H](O)[C@H](O)[C@H]3O)[C@H](O)[C@H]2O)C(O)C(O)[C@@H]2O[C@H]12 (stereo partly shown) [compound 5, inhibitor 5]
[2]; compound also hydrolysed internally by the enzyme
  KI (inactivation): 1.9 ± 0.3 µM

## [N-]=[N+]=NCCOCCOCCOCC(=O)N[C@H]1[C@H](O)[C@@H](O)[C@H](O[C@H]2[C@H](O)[C@@H](O)[C@@H]3O[C@@H]3[C@@H]2CO)O[C@@H]1CO [compound 13, probe 13]
[2]
  KI (inactivation): 3.9 ± 0.3 µM

## O=C(CCCC[C@@H]1SC[C@@H]2NC(=O)N[C@@H]21)NCCOCCOCCOCC(=O)N[C@H]1[C@H](O)[C@@H](O)[C@H](O[C@H]2[C@H](O)[C@@H](O)[C@@H]3O[C@@H]3[C@@H]2CO)O[C@@H]1CO [compound 15, probe 15]
[3]
  biotin-avidin pulldown, label-free LC-MS/MS quantification: detected at elevated levels in the probe 15-treated samples relative to the negative control were CbhA, CbhB
[4]
  biotin-avidin pulldown, label-free LC-MS/MS quantification: relative to the negative control were CbhA, CbhB, and XynC
[5]
  biotin-avidin pulldown, label-free LC-MS/MS quantification: detected at elevated levels in the probe 15-treated samples relative to the negative control were CbhA

B1: HiCel7B (Mycothermus thermophilus) (protein)
chain: T1 sequence (P56680 1-402)
notes: purified enzyme, gift from Novozymes; deglycosylated for crystals
[6]
  Km: 76 µM
